Laboratory results as given in patent publication US8513258B2, “Cinnamoyl-piperazine derivatives and their use as par-1 antagonists” (Pierre Fabre Medicament, priority 2006, dated 2013).

Target: T1, PAR-1 receptor (Cricetulus griseus, UniProt A0A8C2QJ57)
T1 construct: Chinese hamster ovarian (CHO) cells constituently express PAR-1 receptor; endogenous in cells; host or cells: CHO cells
T1 sequence (A0A8C2QJ57 22-428): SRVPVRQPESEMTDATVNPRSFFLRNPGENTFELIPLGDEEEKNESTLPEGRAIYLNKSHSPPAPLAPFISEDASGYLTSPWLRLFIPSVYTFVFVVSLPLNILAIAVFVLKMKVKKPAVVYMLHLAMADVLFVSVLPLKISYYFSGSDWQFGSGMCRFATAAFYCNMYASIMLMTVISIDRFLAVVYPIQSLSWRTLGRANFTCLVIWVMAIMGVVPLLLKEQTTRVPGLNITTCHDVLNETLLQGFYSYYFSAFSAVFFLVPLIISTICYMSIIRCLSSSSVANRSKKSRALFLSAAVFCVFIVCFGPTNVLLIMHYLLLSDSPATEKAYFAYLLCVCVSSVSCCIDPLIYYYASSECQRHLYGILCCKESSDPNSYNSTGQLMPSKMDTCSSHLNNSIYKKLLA
Test: Antagonism of SFLLR-induced calcium release in CHO cells (FLIPR, Fluo-3AM)
Format: cell-based, Chinese hamster
Settings: agonist SFLLR-NH2, Arunlakshana and Schild method from EC50 shifts at three antagonist concentrations; for Kb: read-out: pA2 (converted)
Experimental: In a variety of cell types, activation of PAR-1 receptors by the SFLLR peptide (a selective PAR-1 agonist) triggers an intracellular signal cascade leading to the release of calcium by the endoplasmic reticulum. Chinese hamster ovarian (CHO) cells constituently express PAR-1 receptor. In this cell line, the release of calcium consecutive to receptor activation by SFLLR is measured by a fluorometry technique (fluorometric imaging plate reader, or FLIPR) using a selective probe for calcium (Fluo-3AM). The emission of fluorescence is pharmacologically proportional to the efficiency of the PAR-1 agonist and to its concentration.
Culture medium: Ham's F-12 (Ham, R. G., Proc. Nat. Acad. Sci. 1965, 53: 288) supplemented with 10% fetal calf serum and […].
Fluorescent probe: Fluo-3AM (4 μM; Teflabs, Austin, Tex., USA)
Agonist: SFLLR-NH2 (Serine, phenylalanine, leucine, leucine, arginine).
Methods: CHO cells are inoculated in 96-well plates (60,000 cells per well) in the presence of 200 μl of culture medium for 24 hours. The cells are incubated with the calcium fluorescent probe for 1 hour at 37° C. The cells are then washed 10 minutes before the signal is measured. PAR-1 antagonist is then injected (0.01 μM to 10 μM). The plates are placed in the FLIPR (Molecular Devices, UK) to measure calcium fluorescence at two wavelengths (488 nm and 540 nm: Sullivan et al., Calcium Signaling Protocols 1999, 125-136). Measurements are taken for 5 min before the antagonist is added and for 10 min following its administration. Maximum fluorescence minus baseline fluorescence is measured in 4 different wells. The test is carried out in duplicate. Under these conditions, the derivatives of the present invention were identified as PAR-1 receptor antagonists (antagonism>60% of the calcium signal at 10 μM). The dose-response curves (0.01 μM to 32 μM) obtained with the SFLLR agonist allowed determination of the effective concentration inducing 50% of the maximum effect (EC50). The strengths (pA2) of some of the PAR-1 antagonists described in the present invention were calculated using the method of Arunlakshana and Schild (Brit. J. Pharmacol., 1959, 14: 48-58) from the EC50 shifts observed at three concentrations.

Row | Compound | pA2 | Kb [µM]
1 | O=C(/C=C/c1ccccc1Cl)N1CCN(Cc2ccc(F)cc2)CC1 [Example 1, 3-(2-Chloro-phenyl)-1-[4-(4-fluoro-benzyl)-piperazin-1-yl]-propenone] |  | 0.38
2 | Cc1cccc(CN2CCN(C(=O)C=Cc3c(F)cccc3F)CC2)c1 [Example 10, 3-(2,6-Difluoro-phenyl)-1-[4-(3-methyl-benzyl)-piperazin-1-yl]-propenone] | 6.46 | 
3 | O=C(C=Cc1c(F)cccc1F)N1CCN(Cc2ccc(F)c(F)c2)CC1 [Example 8, 1-[4-(3,4-Difluoro-benzyl)-piperazin-1-yl]-3-(2,6-difluoro-phenyl)-propenone] | 6.32 | 
4 | O=C(C=Cc1ccccc1Br)N1CCN(Cc2ccc(F)cc2)CC1 [Example 3, 3-(2-Bromo-phenyl)-1-[4-(4-fluoro-benzyl)-piperazin-1-yl]-propenone] | 6.36 | 
5 | O=C(C=Cc1ccccc1[N+](=O)[O-])N1CCN(Cc2ccc(F)cc2)CC1 [Example 29, 1-[4-(4-Fluoro-benzyl)-piperazin-1-yl]-3-(2-nitro-phenyl)-propenone] | 6.98 | 

Other lines, results leading:

Row | pA2 | Kb [µM] | Compound
6 | 6.39 |  | O=C(C=Cc1ccccc1Cl)N1CCN(Cc2ccccc2F)CC1 [Example 15, 3-(2-Chloro-phenyl)-1-[4-(2-fluoro-benzyl)-piperazin-1-yl]-propenone]
7 |  | 0.759 | O=C(/C=C/c1ccccc1Cl)N1CCN(CC2CCCCC2)CC1 [Example 28, 3-(2-Chloro-phenyl)-1-(4-cyclohexylmethyl-piperazin-1-yl)-]
8 |  | 0.166 | O=C(/C=C/c1ccccc1[N+](=O)[O-])N1CCN(CC2CCCCC2)CC1 [Example 25, 1-(4-Cyclohexylmethyl-piperazin-1-yl)-3-(2-nitro-phenyl)-propenone]
9 | 6.05 |  | Cc1ccc(CN2CCN(C(=O)C=Cc3ccccc3Cl)CC2)cc1 [Example 4, 3-(2-Chloro-phenyl)-1-[4-(4-methyl-benzyl)-piperazin-1-yl]-propenone]
10 | 6.50 |  | O=C(C=Cc1ccccc1F)N1CCN(Cc2ccc(F)cc2)CC1 [Example 2, 1-[4-(4-Fluoro-benzyl)-piperazin-1-yl]-3-(2-fluoro-phenyl)-propenone]
